# Measured values reported in ChEMBL document CHEMBL5030507, “Structure-Based Design of a Selective Class I Histone Deacetylase (HDAC) Near-Infrared (NIR) Probe for Epigenetic Regulation Detection in Triple-Negative Breast Cancer (TNBC)” (J Med Chem, 2021).
# pIC50: −log10 of the molar value.
# Legend:
# [1] = molecular target: Histone deacetylase 3/Nuclear receptor corepressor 2 (HDAC3/NCoR2) (Homo sapiens, UniProt O15379); test: Inhibition of C-terminal His-tagged recombinant human HDAC3 (1 to 428 residues)/N-terminal GST-tagged recombinant human NCoR2 (395 to 489 residues) co-expressed in baculovirus infected Sf9 cells using fluorometric substrate measured after 60 mins by FRET assay
# [2] = molecular target: T1, Polyamine deacetylase HDAC10 (Homo sapiens, UniProt Q969S8); test: Inhibition of recombinant human N-terminal FLAG tagged HDAC10 (2 to 631 residues) expressed in baculovirus infected Sf9 insect cells using fluorogenic substrate measured after 60 mins by FRET assay
# T1 sequence (Q969S8 whole entry): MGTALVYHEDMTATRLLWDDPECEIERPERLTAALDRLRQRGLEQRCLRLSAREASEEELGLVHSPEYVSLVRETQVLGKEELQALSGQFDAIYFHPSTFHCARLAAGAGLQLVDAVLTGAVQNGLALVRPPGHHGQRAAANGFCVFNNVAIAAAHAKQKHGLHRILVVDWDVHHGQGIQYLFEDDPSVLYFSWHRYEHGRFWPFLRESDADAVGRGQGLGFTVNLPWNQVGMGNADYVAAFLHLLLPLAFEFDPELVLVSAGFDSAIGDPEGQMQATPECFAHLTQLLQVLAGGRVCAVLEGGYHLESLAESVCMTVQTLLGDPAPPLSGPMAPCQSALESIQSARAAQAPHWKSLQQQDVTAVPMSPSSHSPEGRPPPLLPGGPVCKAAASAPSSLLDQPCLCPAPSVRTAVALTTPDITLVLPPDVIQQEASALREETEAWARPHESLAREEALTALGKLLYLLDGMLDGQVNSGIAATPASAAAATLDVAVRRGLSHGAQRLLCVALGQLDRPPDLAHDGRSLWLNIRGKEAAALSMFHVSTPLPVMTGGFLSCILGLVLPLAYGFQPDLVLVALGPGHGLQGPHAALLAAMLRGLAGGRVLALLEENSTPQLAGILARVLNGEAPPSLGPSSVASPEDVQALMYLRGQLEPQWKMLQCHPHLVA
# Histone deacetylase 2 = Histone deacetylase 2 (Homo sapiens, UniProt Q92769); test: biochemical; assay type: cell-based, Sf9
# Description: Inhibition of recombinant human full length C-terminal His- tagged HDAC2 (1 to 488 residues) expressed in Sf9 insect cells using fluorometric substrate measured after 60 mins by FRET assay
# [3] = molecular target: T2, Protein deacetylase HDAC6 (Homo sapiens, UniProt Q9UBN7); test: Inhibition of recombinant human full length N-terminal GST-tagged HDAC6 expressed in Sf9 cells using fluorogenic substrate measured after 60 mins by FRET assay
# T2 sequence (Q9UBN7 whole entry): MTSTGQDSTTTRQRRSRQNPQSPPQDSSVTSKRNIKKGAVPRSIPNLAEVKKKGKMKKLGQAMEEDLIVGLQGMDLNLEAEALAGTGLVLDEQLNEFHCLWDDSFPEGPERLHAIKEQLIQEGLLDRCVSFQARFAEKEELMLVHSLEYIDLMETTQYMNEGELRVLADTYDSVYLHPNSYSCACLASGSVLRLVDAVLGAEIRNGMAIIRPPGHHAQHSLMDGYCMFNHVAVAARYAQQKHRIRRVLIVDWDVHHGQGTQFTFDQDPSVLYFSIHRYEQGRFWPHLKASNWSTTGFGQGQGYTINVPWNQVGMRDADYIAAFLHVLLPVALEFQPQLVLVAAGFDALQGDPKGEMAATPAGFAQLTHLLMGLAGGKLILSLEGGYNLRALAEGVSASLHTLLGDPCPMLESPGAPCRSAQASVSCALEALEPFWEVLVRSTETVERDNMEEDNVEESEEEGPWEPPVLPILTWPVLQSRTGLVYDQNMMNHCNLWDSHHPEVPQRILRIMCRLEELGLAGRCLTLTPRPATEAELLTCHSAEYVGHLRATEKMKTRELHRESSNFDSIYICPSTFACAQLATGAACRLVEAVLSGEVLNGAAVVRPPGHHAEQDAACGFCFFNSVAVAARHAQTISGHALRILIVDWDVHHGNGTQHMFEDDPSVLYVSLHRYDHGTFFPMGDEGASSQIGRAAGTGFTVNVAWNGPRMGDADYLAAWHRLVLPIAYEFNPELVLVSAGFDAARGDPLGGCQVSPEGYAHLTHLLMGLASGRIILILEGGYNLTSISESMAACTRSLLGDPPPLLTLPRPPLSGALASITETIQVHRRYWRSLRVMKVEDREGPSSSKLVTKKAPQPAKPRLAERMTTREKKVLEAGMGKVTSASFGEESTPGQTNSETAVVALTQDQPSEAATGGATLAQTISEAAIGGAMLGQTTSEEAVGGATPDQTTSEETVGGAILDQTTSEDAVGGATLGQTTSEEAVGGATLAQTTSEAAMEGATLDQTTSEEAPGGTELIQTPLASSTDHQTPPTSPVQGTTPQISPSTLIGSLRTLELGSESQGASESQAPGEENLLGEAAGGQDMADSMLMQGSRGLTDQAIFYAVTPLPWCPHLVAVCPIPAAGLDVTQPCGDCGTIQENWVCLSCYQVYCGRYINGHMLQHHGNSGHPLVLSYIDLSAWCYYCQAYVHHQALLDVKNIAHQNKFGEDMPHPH
# [4] = Cytotoxicity against human WI-38 cells assessed as cell growth inhibition incubated for 72 hrs by CCK8 assay; assay type: cell-based
# MDA-MB-231 = test: Antiproliferative activity against triple-negative human MDA-MB-231 cells assessed as cell growth inhibition incubated for 72 hrs by CCK8 assay; assay type: functional
# Histone deacetylase 8 = molecular target: T3, Histone deacetylase 8 (Homo sapiens, UniProt Q9BY41); test: Inhibition of recombinant human full length C-terminal His-tagged HDAC8 expressed in baculovirus infected Sf9 insect cells using fluorometric substrate measured after 60 mins by FRET assay
# T3 sequence (Q9BY41 whole entry): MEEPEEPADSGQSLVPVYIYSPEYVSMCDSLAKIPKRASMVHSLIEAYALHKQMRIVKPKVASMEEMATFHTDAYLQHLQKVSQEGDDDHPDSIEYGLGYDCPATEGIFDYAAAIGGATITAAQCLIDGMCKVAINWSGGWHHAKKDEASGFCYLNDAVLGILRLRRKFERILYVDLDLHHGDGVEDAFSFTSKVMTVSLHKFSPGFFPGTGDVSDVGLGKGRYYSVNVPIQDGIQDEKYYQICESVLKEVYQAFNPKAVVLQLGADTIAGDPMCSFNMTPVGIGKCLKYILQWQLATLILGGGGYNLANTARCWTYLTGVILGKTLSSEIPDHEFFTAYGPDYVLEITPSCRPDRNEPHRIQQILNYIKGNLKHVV
# [5] = Selectivity index, ratio of GI50 for cytotoxicity against human WI-38 cells to GI50 for antiproliferative activity against triple-negative human MDA-MB-231 cells; assay type: toxicity, cell-based; settings: WI-38 cells versus MDA-MB-231 cells, read-out: RatioGI50
# Histone deacetylase 1 = Histone deacetylase 1 (Homo sapiens, UniProt Q13547); test: Inhibition of recombinant human C-terminal FLAG/His-tagged HDAC1 (1 to 482 residues) expressed in Sf9 insect cells using fluorometric substrate measured after 60 mins by FRET assay
# [6] = (§1) Drug uptake in tumor of athymic nude mouse xenografted with human MDA-MB-231 cells at 3 nmol, iv pretreated with (12Z,7S,10S)-7- (4-Aminobutyl)-4-ethylidene-10-((E)-4-(heptyldisulfaneyl)but-1-en-1-yl)-9-oxa-3,6,13-triaza-1(4,2)-thiazolacyclotetradecaphane-2,5,8,12-tetraone followed by compound addition and measured up to 48 hrs by epifluorescence analysis; assay type: ADME, organism-based, Neoplasm; settings: in vivo
# [7] = Drug uptake in tumor of athymic nude mouse xenografted with human MDA-MB-231 cells assessed as reduction in tumor to normal tissue ratio at 3 nmol, iv in presence of (12Z,7S,10S)-7- (4-Aminobutyl)-4-ethylidene-10-((E)-4-(heptyldisulfaneyl)but-1-en-1-yl)-9-oxa-3,6,13-triaza-1(4,2)-thiazolacyclotetradecaphane-2,5,8,12-tetraone measured up to 48 hrs by epifluorescence analysis relative to control; assay type: ADME, organism-based, Neoplasm; settings: in vivo
# [8] = Drug distribution in NOD-SCID mouse lung xenografted with triple negative MDA-MB-231 cells assessed as accumulation in metastatic lungs by measuring increase in fluorescence intensity at 3 nmol, iv measured 24 hrs post infection by NRI fluorescence imaging analysis (Rvb= 2.2+/- 0.5 10^9/s/cm2); assay type: ADME, organism-based; settings: in vivo
# Histone deacetylase = test: Inhibition of recombinant HDAC in human HeLa nuclear extracts using fluorogenic substrate measured after 60 mins by FRET assay
# [9] = Drug distribution in NOD-SCID mouse lung xenografted with triple negative MDA-MB-231 cells at 3 nmol, iv measured 24 hrs post infection by NRI fluorescence imaging analysis; assay type: ADME, organism-based; settings: in vivo
# Homo sapiens = species on record: Homo sapiens; test: Selectivity index, ratio of IC50 for inhibition of recombinant HDAC in human HeLa nuclear extracts to IC50 for inhibition of recombinant human C-terminal FLAG/His-tagged HDAC1 (1 to 482 residues) expressed in Sf9 insect cells
# [10] = Biodistribution in kidney of athymic nude mouse xenografted with human MDA-MB-231 cells assessed as fluorescence intensity at 3 nmol, iv measured 48 hrs post infection by epifluorescence analysis; assay type: ADME, organism-based; settings: in vivo
# [11] = as §1, with “Biodistribution” for “Drug uptake”, “cells assessed as fluorescence intensity” for “cells”, “after” for “up to”; assay type: ADME, organism-based, Neoplasm; settings: in vivo
# [12] = Drug uptake in triple negative human MDA-MB-231 cells overexpressing class 1 HDACs at 1.5 uM in presence of (12Z,7S,10S)-7- (4-Aminobutyl)-4-ethylidene-10-((E)-4-(heptyldisulfaneyl)but-1-en-1-yl)-9-oxa-3,6,13-triaza-1(4,2)-thiazolacyclotetradecaphane-2,5,8,12-tetraone measured after 60 mins by DAPI staining based confocal microscopic analysis; assay type: ADME, cell-based; settings: mda-mb-231, 1 h
# [13] = Drug uptake in tumor of athymic nude mouse xenografted with human MDA-MB-231 cells at 3 nmol, iv pretreated with SAHA for 3 days followed by compound addition and measured up to 48 hrs by epifluorescence analysis; assay type: ADME, organism-based, Neoplasm; settings: in vivo
# [14] = Drug distribution in triple negative human MDA-MB-231 cells expressing class 1 HDACs assessed as accumulation in nucleus by measuring colocalization of Cy5.5 signal measured for 60 mins by DAPI staining based confocal microscopic analysis; assay type: ADME, cell-based; settings: mda-mb-231, 1 h
# [15] = Biodistribution in tumor of athymic nude mouse xenografted with human MDA-MB-231 cells assessed as fluorescence intensity at 3 nmol, iv pretreated with SAHA for 3 days followed by compound addition and measured up to 48 hrs by epifluorescence analysis; assay type: ADME, organism-based, Neoplasm; settings: in vivo
# [16] = Drug uptake in tumor of athymic nude mouse xenografted with human MDA-MB-231 cells at 3 nmol, iv measured 4 hrs post infection by epifluorescence analysis; assay type: ADME, organism-based, Neoplasm; settings: in vivo
# [17] = Biodistribution in tumor of athymic nude mouse xenografted with human MDA-MB-231 cells assessed as fluorescence intensity at 3 nmol, iv measured 48 hrs post infection by epifluorescence analysis; assay type: ADME, organism-based, Neoplasm; settings: in vivo
# Histone deacetylase 1, sequence (Q13547 whole entry, the tested form may be a part): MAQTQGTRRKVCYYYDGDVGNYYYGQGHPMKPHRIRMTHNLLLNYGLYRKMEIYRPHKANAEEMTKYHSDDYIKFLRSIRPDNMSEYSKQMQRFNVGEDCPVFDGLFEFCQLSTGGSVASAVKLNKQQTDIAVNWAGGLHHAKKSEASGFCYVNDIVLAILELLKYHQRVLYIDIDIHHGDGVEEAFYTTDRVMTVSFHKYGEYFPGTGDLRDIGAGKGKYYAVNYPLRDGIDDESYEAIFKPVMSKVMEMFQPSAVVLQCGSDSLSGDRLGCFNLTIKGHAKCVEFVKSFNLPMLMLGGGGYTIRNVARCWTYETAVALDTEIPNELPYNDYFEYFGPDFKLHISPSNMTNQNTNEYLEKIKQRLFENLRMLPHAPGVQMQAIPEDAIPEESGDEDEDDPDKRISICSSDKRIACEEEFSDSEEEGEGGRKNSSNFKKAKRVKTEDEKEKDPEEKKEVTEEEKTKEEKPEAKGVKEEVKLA
# Histone deacetylase 2, sequence (Q92769 whole entry): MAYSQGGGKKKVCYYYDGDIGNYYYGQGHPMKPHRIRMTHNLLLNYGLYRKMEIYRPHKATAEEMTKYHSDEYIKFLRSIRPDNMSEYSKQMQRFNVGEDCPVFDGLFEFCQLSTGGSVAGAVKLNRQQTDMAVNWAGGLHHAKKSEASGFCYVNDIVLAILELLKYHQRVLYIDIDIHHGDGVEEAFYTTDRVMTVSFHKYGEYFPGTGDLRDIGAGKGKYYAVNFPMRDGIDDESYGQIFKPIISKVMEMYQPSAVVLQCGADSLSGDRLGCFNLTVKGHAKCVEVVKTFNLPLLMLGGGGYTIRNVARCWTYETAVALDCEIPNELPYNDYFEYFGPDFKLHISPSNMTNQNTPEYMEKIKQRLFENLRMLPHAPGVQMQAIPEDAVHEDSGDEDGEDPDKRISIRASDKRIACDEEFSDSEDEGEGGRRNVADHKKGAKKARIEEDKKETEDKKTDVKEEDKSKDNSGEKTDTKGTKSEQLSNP
# Histone deacetylase 3/Nuclear receptor corepressor 2 (HDAC3/NCoR2), sequence (O15379 whole entry, the tested form may be a part): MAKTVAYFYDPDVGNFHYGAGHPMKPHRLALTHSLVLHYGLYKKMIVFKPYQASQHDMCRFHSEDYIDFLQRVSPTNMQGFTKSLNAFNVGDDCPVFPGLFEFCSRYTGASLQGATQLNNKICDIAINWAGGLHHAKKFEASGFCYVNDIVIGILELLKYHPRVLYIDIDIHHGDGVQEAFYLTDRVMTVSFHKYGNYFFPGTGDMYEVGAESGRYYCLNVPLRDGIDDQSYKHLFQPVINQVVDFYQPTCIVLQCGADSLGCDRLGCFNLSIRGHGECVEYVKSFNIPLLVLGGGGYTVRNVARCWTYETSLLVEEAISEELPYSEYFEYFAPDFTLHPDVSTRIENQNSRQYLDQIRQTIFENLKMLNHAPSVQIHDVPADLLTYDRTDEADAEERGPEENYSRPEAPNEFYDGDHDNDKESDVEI
# Histone deacetylase 3/Nuclear receptor corepressor 2 (HDAC3/NCoR2), sequence (Q9Y618 whole entry, further chain, the tested form may be a part): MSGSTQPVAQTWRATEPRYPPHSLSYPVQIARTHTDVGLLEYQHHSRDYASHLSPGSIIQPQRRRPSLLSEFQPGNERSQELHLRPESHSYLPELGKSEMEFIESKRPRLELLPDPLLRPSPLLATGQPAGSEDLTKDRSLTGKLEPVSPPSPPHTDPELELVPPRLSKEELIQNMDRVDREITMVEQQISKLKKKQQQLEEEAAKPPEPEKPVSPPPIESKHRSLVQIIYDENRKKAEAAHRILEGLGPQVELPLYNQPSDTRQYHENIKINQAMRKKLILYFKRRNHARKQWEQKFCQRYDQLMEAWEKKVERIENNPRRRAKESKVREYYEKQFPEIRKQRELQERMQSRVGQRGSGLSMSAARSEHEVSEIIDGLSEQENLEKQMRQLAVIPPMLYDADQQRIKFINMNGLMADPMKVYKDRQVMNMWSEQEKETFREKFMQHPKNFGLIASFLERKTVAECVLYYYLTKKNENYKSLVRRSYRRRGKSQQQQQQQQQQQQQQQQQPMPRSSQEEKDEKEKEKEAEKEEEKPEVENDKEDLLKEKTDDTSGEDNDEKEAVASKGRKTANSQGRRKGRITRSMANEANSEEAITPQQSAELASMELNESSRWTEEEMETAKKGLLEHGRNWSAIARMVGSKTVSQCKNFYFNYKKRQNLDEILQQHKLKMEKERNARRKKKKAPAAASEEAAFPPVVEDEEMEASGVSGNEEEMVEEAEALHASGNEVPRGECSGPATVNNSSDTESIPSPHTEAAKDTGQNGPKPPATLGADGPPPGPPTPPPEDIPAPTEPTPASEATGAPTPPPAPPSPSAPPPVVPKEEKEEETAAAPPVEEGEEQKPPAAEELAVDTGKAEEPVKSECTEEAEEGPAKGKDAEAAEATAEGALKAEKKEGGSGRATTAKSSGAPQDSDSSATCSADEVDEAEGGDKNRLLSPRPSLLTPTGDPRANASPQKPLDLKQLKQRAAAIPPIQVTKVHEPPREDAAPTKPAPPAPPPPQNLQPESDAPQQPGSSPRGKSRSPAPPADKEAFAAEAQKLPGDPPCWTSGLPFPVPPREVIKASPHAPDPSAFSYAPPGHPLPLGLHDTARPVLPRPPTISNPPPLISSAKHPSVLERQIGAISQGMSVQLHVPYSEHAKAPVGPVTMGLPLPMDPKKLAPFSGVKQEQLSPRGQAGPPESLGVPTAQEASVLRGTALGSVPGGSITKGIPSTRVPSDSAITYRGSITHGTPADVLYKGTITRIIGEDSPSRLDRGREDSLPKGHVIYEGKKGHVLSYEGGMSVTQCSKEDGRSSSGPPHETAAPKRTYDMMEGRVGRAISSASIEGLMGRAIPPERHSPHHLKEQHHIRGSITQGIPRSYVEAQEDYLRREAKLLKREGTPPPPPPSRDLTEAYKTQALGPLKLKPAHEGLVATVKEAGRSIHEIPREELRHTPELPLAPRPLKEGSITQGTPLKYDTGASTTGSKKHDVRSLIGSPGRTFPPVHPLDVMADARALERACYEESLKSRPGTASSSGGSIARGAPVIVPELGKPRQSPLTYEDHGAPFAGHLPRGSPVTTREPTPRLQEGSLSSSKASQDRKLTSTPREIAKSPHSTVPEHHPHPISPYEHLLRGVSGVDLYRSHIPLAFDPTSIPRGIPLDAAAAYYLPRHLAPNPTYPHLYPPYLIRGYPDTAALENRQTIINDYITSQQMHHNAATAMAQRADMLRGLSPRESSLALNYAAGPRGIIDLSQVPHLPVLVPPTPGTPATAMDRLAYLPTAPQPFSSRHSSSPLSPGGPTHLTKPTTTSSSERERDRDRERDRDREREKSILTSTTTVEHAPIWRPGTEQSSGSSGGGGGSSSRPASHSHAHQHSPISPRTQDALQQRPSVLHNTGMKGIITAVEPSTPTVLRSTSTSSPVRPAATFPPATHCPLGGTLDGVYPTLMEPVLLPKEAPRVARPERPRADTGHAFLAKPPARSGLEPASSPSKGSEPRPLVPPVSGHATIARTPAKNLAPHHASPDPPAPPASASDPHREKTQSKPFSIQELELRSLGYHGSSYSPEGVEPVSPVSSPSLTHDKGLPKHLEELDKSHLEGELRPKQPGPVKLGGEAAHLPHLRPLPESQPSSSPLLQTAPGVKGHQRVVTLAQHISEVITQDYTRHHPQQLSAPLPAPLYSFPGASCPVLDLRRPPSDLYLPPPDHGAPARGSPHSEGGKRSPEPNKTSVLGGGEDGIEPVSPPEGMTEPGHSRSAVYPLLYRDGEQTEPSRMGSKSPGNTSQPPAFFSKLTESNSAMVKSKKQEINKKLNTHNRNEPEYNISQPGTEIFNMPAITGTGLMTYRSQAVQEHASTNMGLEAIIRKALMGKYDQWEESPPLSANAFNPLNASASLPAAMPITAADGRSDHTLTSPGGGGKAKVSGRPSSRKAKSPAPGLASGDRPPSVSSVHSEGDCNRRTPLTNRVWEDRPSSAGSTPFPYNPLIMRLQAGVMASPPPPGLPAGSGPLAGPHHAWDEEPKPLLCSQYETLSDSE
smiles,measurement,setting,value
C/C=C1\NC(=O)c2csc(n2)CNC(=O)C[C@@H](/C=C/CCSC(=O)CCCCCCC)OC(=O)[C@H](C(C)C)NC1=O,pIC50,[1],8.05
same,pIC50,[2],7.43
same,pIC50,Histone deacetylase 2,8.28
same,pIC50,[3],5.74
same,GI50 at 72 h,[4],363 nM
same,GI50,MDA-MB-231,11.3 nM
same,pIC50,Histone deacetylase 8,5.40
same,selectivity ratio,[5],32
same,pIC50,Histone deacetylase 1,8.51
C/C=C1\NC(=O)[C@H]2CSSCC/C=C/[C@H](CC(=O)N[C@H](C(C)C)C(=O)N2)OC(=O)[C@H](C(C)C)NC1=O [ROMIDEPSIN],GI50 at 72 h,[4],30.1 nM
same,selectivity ratio,[5],3.1
C/C=C1\NC(=O)c2csc(n2)CNC(=O)C[C@@H](/C=C/CCSSCCCCCCC)OC(=O)[C@H](CCCCNC(=O)CCCCC[N+]2=C(/C=C/C=C/C=C3/N(CC)c4ccc5c(S(=O)(=O)O)cc(S(=O)(=O)O)cc5c4C3(C)C)C(C)(C)c3c2ccc2c(S(=O)(=O)[O-])cc(S(=O)(=O)O)cc32)NC1=O,Drug uptake,[6],Not Active
same,Drug uptake,[7],70%
same,Flu intensity,[8],8 10^9/s/cm2
same,IC50,Histone deacetylase,824 nM
same,Drug uptake,[9],Active
same,pIC50,[3],7.15
same,Ratio IC50,Homo sapiens,100
same,Flu intensity,[10],3.06 10^9/s/cm2
same,Flu intensity,[11],1.95 10^9/s/cm2
same,Drug uptake,[12],Not Active
same,Drug uptake,[13],Not Active
same,Drug uptake,[14],Active
same,Flu intensity,[15],1.33 10^9/s/cm2
same,pIC50,Histone deacetylase 1,8.10
same,Drug uptake,[16],Active
same,Flu intensity,[17],3.13 10^9/s/cm2
